This is an account of results in patent US9663514B2 (Takeda Pharmaceutical Company Limited, priority 2011, dated 2017).

The target of this assay is T1, SYK (Homo sapiens, UniProt P43405).
T1 construct: The SYK kinase domain (residues 356-635) is amplified via PCR; made in house; host or cells: Sf9 insect cells (baculovirus, pFastBac1)
Put plainly: SYK inhibition: in vitro assay of SYK-mediated phosphorylation of FAM-labeled substrate (Caliper LC-3000). The format is biochemical. The conditions noted are these: SYK kinase domain (residues 356-635); 2.4 nM SYK and 45 μM ATP, 3 μM 5FAM-KKKKEEIYFFFG-NH2, RT 60 min, pH 7.3; pIC50 = −log(IC50), IC50 molar. The procedure:
The ability of compounds to inhibit SYK activity may be assessed using a variety of methods, including in vitro and in vivo assays. The following in vitro assay measures a test compound's ability to inhibit SYK-mediated phosphorylation of a FAM-labeled SYK-specific substrate (5FAM-KKKKEEIYFFFG-NH2).
SYK protein is prepared from cDNA encoding human spleen tyrosine kinase and is expressed in insect cells using a baculovirus expression vector. The cDNA (IMAGE: 3542895) is purchased from Open Biosystems. The SYK kinase domain (residues 356-635) is amplified via PCR and cloned into plasmid pFastBacl (Invitrogen) at BamHI/XbaI sites. Recombinant plasmid encoding Met-Ala-Lys-SYK(356-635)-HHHHHH is sequenced and transformed into E. coli DH10Bac strain. The recombinant bacmid DNA is isolated and transfected into Sf9 insect cells. Recombinant virus is harvested 72 h after transfection. High titer viral stock is prepared by infecting Sf9 cells at a multiplicity of infection (MOI) of approximately 0.01. A suspension of Sf9 cells (10 L) is infected with recombinant virus (MOI=5) and is incubated in a Wave Bioreactor (GE-Healthcare) for 48 h. The cells are harvested and stored at −80° C.
To purify the expressed protein, the frozen Sf9 cells (10 L) are broken into small (<1 cm) particles and suspended in a lysis buffer (300 mL) containing 20 mM Tris (pH 7.6), 0.25 mM TCEP, 100 mM NaCl, 5% glycerol and a protease inhibitor. The suspension is stirred at RT until completely thawed, lysed an additional 2-4 min on a rotary blade homogenizer, and then centrifuged at 4200 g for 1 h. Following centrifugation, the supernatant is poured through cheese cloth and combined with a nickel chelating resin (Probond Resin™, Invitrogen) which is pre-equilibrated in a wash buffer containing 10 mM Tris (pH 7.6), 0.25 mM TCEP, 300 mM NaCl, 5% glycerol, and 20 mM imidazole. The mixture is agitated for 3 h in a cold room and then centrifuged at 900 g for 10 min. The resin is dispersed in wash buffer (50 mL), centrifuged for 10 min at 900 g, re-dispersed in a small amount of wash buffer (5 mL), and then pour into a disposable Poly-Prep chromatography column, through which wash buffer is passed by gravity until no protein is observed in coomassie buffer (about 120 mL of wash buffer). An elution buffer (30 mL) containing 10 mM HEPES (pH 7.4), 150 mM NaCl, 10% glycerol, 5 mM DTT, and 400 mM imidazole is used to elute the SYK protein from the resin. The eluate is concentrated (5 mL) and further purified on a Superdex 200 column (1.2 mL/min for 160 min, 10 mM HEPES (pH 7.4), 10 mM NaCl, 10 mM MgCl, 0.1 mM EDTA, and 0.25 mM TCEP). The chromatographed fractions are run on SDS-PAGE and the requisite fractions are pooled and concentrated. Final delivery buffer is 10 mM HEPES (pH 7.4), 10 mM Methione, 150 mM NaCl, 10% glycerol, 5 mM DTT.
SYK inhibition is determined using a black 384 well plate format in buffer containing 50 mM HEPES, 10 mM NaCl, 10 mM MgCl2, 0.2 mM EDTA, 0.01% EDA (Brij®35), 1 mM DTT, and 0.1 mg/ml BSA at pH 7.3. Each test compound is prepared in DMSO using 2-fold serial dilutions for 11 data points, which are added to the buffer so that each dilution contains 3% DMSO. To each well is added 2 μL of 3 μM SFAM-KKKKEEIYFFFG-NH2 (in buffer), 2 μL of diluted test compound (3% DMSO in buffer), and 2 μL of 2.4 nM SYK and 45 μM ATP (in buffer). The reaction mixture is incubated at RT for 60 min, and quenched by adding 50 mM Hepes, 30 mM EDTA, 0.1% Triton X-100 (pH 7.3). To quantify the fluorescent-labeled substrate and product following reaction, the test plate is loaded on a Caliper LC-3000, which measures percent of conversion by microfluidic-based separation. Corresponding IC50 values are calculated by non-linear curve fitting of the compound concentrations and percent of inhibition to the standard IC50 equation and reported as pIC50, i.e., −log(IC50), where IC50 is molar concentration.

For orientation: IC50 means the midpoint of a concentration-inhibition curve. Higher therefore signals lower potency. `N[C@H]1COCC[C@H]1Nc1nc(-c2cc3ncccc3s2)c2c(c1F)CNC2=O` [Example 25, 6-((3R,4R)-3-Aminotetrahydro-2H-pyran-4-ylamino)-7-fluoro-4-(thieno[3,2-b]pyridin-2-yl)-1H-pyrrolo[3,4-c]pyridin-3(2H)-one]: half-maximal inhibition (IC50) required 12.6 nM.

`N[C@H]1CCCC[C@H]1Nc1nc(-c2cc3ncccc3s2)c2c(c1F)CNC2=O` [Example 26, 6-((1R,2S)-2-Aminocyclohexylamino)-7-fluoro-4-(thieno[3,2-b]pyridin-2-yl)-1H-pyrrolo[3,4-c]pyridin-3(2H)-one] had an IC50 of 5.01 nM.

On to `N[C@H]1COCC[C@H]1Nc1nc(-c2cc(F)cs2)c2c(c1F)CNC2=O` [Example 27, 6-((3R,4R)-3-Aminotetrahydro-2H-pyran-4-ylamino)-7-fluoro-4-(4-fluorothiophene-2-yl)-1H-pyrrolo[3,4-c]pyridin-3(2H)-one], for which the IC50 is 5.01 nM.

`N[C@H]1CCCC[C@H]1Nc1nc(-c2cc(F)cs2)c2c(c1F)CNC2=O` [Example 28, 6-((1R,2S)-2-Aminocyclohexylamino)-7-fluoro-4-(4-fluorothiophene-2-yl)-1H-pyrrolo[3,4-c]pyridin-3(2H)-one]: 1.58 nM corresponded to half-maximal inhibition (IC50).

As to `Cn1ncc2sc(-c3nc(N[C@@H]4CCCC[C@@H]4N)c(F)c4c3C(=O)NC4)cc21` [Example 29, 6-((1R,2S)-2-Aminocyclohexylamino)-7-fluoro-4-(1-methyl-1H-thieno[3,2-c]pyrazol-5-yl)-1H-pyrrolo[3,4-c]pyridin-3(2H)-one], the half-maximal inhibitory concentration (IC50) was 0.1 nM.

Molecule `Cn1ncc2sc(-c3nc(N[C@@H]4CCOC[C@@H]4N)c(F)c4c3C(=O)NC4)cc21` [Example 30, 6-((3R,4R)-3-Aminotetrahydro-2H-pyran-4-ylamino)-7-fluoro-4-(1-methyl-1H-thieno[3,2-c]pyrazol-5-yl)-1H-pyrrolo[3,4-c]pyridin-3(2H)-one] gave a half-maximal inhibitory concentration (IC50) of 0.1 nM.

`Cc1nn(C)c2cc(-c3nc(N[C@@H]4CCCC[C@@H]4N)c(F)c4c3C(=O)NC4)sc12` [Example 31, 6-((1R,2S)-2-Aminocyclohexylamino)-4-(1,3-dimethyl-1H-thieno[3,2-c]pyrazol-5-yl)-7-fluoro-1H-pyrrolo[3,4-c]pyridin-3(2H)-one] showed a 50% inhibitory concentration (IC50) of 0.126 nM.

`Cc1nn(C)c2cc(-c3nc(N[C@@H]4CCOC[C@@H]4N)c(F)c4c3C(=O)NC4)sc12` [Example 32, 6-((3R,4R)-3-Aminotetrahydro-2H-pyran-4-ylamino)-4-(1,3-dimethyl-1H-thieno[3,2-c]pyrazol-5-yl)-7-fluoro-1H-pyrrolo[3,4-c]pyridin-3(2H)-one]: the IC50 was 0.2 nM.

In turn, `Cc1c2sc(-c3nc(N[C@@H]4CCCC[C@@H]4N)c(F)c4c3C(=O)NC4)cc2nn1C` [Example 33, 6-((1R,2S)-2-Aminocyclohexylamino)-4-(2,3-dimethyl-2H-thieno[3,2-c]pyrazol-5-yl)-7-fluoro-1H-pyrrolo[3,4-c]pyridin-3(2H)-one] showed a half-maximal inhibitory concentration (IC50) of 0.631 nM.

Consider `Cc1c2sc(-c3nc(N[C@@H]4CCOC[C@@H]4N)c(F)c4c3C(=O)NC4)cc2nn1C` [Example 34, 6-((3R,4R)-3-Aminotetrahydro-2H-pyran-4-ylamino)-4-(2,3-dimethyl-2H-thieno[3,2-c]pyrazol-5-yl)-7-fluoro-1H-pyrrolo[3,4-c]pyridin-3(2H)-one], for which the IC50 is 1.26 nM.

In turn, `N[C@H]1CCCC[C@H]1Nc1nc(-c2cc3n(c2)CCOC3)c2c(c1F)CNC2=O` [Example 35, 6-((1R,2S)-2-Aminocyclohexylamino)-4-(3,4-dihydro-1H-pyrrolo[2,1-c][1,4]oxazin-7-yl)-7-fluoro-1H-pyrrolo[3,4-c]pyridin-3(2H)-one] showed an IC50 of 10 nM.

Take `Cc1nn(C)c2sc(-c3nc(N[C@@H]4CCCC[C@@H]4N)c(F)c4c3C(=O)NC4)cc12` [Example 36, 6-((1R,2S)-2-Aminocyclohexylamino)-4-(1,3-dimethyl-1H-thieno[2,3-c]pyrazol-5-yl)-7-fluoro-1H-pyrrolo[3,4-c]pyridin-3(2H)-one]: half-maximal inhibition (IC50) was put at 0.126 nM.

As for `Cc1nn(C)c2sc(-c3nc(N[C@@H]4CCOC[C@@H]4N)c(F)c4c3C(=O)NC4)cc12` [Example 37, 6-((3R,4R)-3-Aminotetrahydro-2H-pyran-4-ylamino)-4-(1,3-dimethyl-1H-thieno[2,3-c]pyrazol-5-yl)-7-fluoro-1H-pyrrolo[3,4-c]pyridin-3(2H)-one], the IC50 is 0.316 nM.

In turn, `CCn1cc(-c2nc(N[C@@H]3CCOC[C@@H]3N)c(F)c3c2C(=O)NC3)cn1` [Example 38, 6-((3R,4R)-3-Aminotetrahydro-2H-pyran-4-ylamino)-4-(1-ethyl-1H-pyrazol-4-yl)-7-fluoro-1H-pyrrolo[3,4-c]pyridin-3(2H)-one] showed an IC50 of 20 nM.

As for `CCOC(=O)c1ccn2cc(-c3nc(N[C@@H]4CCOC[C@@H]4N)c(F)c4c3C(=O)NC4)cc2c1` [Example 39, Ethyl 2-(6-((3R,4R)-3-Aminotetrahydro-2H-pyran-4-ylamino)-7-fluoro-3-oxo-2,3-dihydro-1H-pyrrolo[3,4-c]pyridin-4-yl)indolizine-7-carboxylate], the IC50 is 2 nM.

Molecule `N[C@H]1COCC[C@H]1Nc1nc(-c2cc3cc(C(=O)O)ccn3c2)c2c(c1F)CNC2=O` [Example 40, 2-(6-((3R,4R)-3-Aminotetrahydro-2H-pyran-4-ylamino)-7-fluoro-3-oxo-2,3-dihydro-1H-pyrrolo[3,4-c]pyridin-4-yl)indolizine-7-carboxylic acid] showed a concentration for half-maximal inhibition (IC50) of 0.2 nM.

For `N[C@H]1COCC[C@H]1Nc1nc(-c2cc3n(c2)CCC3=O)c2c(c1F)CNC2=O` [Example 41, 6-((3R,4R)-3-Aminotetrahydro-2H-pyran-4-ylamino)-7-fluoro-4-(1-oxo-2,3-dihydro-1H-pyrrolizin-6-yl)-1H-pyrrolo[3,4-c]pyridin-3(2H)-one], the IC50 was 20 nM.

The molecule `Cc1cc(-c2nc(N[C@@H]3CCCC[C@@H]3N)c(F)c3c2C(=O)NC3)sn1` [Example 42, 6-((1R,2S)-2-Aminocyclohexylamino)-7-fluoro-4-(3-methylisothiazol-5-yl)-1H-pyaolo[3,4-c]pyridin-3(2H)-one] showed an IC50 of 0.631 nM.

The molecule `N[C@H]1CCCC[C@H]1Nc1nc(C#Cc2ccccc2)c2c(c1F)CNC2=O` [Example 43, 6-((1R,2S)-2-Aminocyclohexylamino)-7-fluoro-4-(phenylethynyl)-1H-pyrrolo[3,4-c]pyridin-3(2H)-one] had an IC50 of 63.1 nM.

As to `N[C@H]1COCC[C@H]1Nc1nc(C#Cc2ccccc2)c2c(c1F)CNC2=O` [Example 44, 6-((3R,4R)-3-Aminotetrahydro-2H-pyran-4-ylamino)-7-fluoro-4-(phenylethynyl)-1H-pyrrolo[3,4-c]pyridin-3(2H)-one], the IC50 is 63.1 nM.

In the case of `N[C@H]1CCCC[C@H]1Nc1nc(/C=C/c2ccc(F)cc2)c2c(c1F)CNC2=O` [Example 45, 6-((1R,2S)-2-Aminocyclohexylamino)-7-fluoro-4-(4-fluorostyryl)-1H-pyrrolo[3,4-c]pyridin-3(2H)-one], the IC50 is 2.51 nM.
